Legend:
cyclooxygenase-1 = target: T1, cyclooxygenase-1 (Mus musculus, UniProt P22437); test: Cyclooxygenase-1 inhibition in mouse peritoneal macrophages (PGE2 ELISA); format: cell-based
T1 construct: endogenous in cells; host or cells: primary mouse peritoneal macrophages (unstimulated)
T1 sequence (P22437 27-602): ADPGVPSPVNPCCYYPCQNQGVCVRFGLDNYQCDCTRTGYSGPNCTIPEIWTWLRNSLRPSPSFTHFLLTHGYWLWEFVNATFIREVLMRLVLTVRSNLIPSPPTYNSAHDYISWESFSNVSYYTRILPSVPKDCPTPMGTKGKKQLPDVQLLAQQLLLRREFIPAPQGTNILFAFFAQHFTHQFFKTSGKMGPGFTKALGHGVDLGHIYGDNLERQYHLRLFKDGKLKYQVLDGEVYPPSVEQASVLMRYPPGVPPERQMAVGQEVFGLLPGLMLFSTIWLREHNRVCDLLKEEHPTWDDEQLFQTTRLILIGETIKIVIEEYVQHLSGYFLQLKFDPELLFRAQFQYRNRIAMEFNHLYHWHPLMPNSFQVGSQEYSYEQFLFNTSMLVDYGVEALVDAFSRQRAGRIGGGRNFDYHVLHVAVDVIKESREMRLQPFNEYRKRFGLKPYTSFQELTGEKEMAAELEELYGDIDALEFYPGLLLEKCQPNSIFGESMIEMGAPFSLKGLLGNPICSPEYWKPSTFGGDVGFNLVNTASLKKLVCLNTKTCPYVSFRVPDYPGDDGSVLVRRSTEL
Description: First of all, the cyclooxygenase-1 was examined through the following procedure.
(§1) Peritoneal fluid in which macrophages were suspended was extracted from a mouse peritoneal cavity and centrifuged at 4° C., 1,000 rpm for 2 minutes. Then, the supernatant was removed, suspended using 20 ml of incomplete RPMI medium [including PC/SM (penicilin/streptomycin)] and again centrifuged under the same condition. […] Then, the cell number was calculated with the hemocytometer and adjusted to reach 1×10^6 cells/ml of cell concentration in the final cell suspension. The resulting suspension was poured into each well of 96-well plate and left with the incubator at 37° C. in 5% CO2 for about 2 hours in order to attach macrophages. […] The resulting cell was cultivated with the incubator at 37° C. in 5% CO2 for about 12˜16 hours. Then, arachidonic acid was added, adjusting to 10 μM of a final concentration and incubated at 37° C. for more 10 minutes and the supernatant of the reacted solution (˜180 μl) was recovered to finish the reaction.

cyclooxygenase-2 = target: T2, cyclooxygenase-2 (Mus musculus, UniProt Q05769); test: Cyclooxygenase-2 inhibition in aspirin-treated, LPS-induced mouse peritoneal macrophages (PGE2 ELISA); format: cell-based
T2 construct: blended with 3% FBS-RPMI 1640 medium containing 10 μg/ml of LPS in each well; endogenous in cells; host or cells: primary mouse peritoneal macrophages, pretreated with 500 μM aspirin and induced with LPS
T2 sequence (Q05769 18-604): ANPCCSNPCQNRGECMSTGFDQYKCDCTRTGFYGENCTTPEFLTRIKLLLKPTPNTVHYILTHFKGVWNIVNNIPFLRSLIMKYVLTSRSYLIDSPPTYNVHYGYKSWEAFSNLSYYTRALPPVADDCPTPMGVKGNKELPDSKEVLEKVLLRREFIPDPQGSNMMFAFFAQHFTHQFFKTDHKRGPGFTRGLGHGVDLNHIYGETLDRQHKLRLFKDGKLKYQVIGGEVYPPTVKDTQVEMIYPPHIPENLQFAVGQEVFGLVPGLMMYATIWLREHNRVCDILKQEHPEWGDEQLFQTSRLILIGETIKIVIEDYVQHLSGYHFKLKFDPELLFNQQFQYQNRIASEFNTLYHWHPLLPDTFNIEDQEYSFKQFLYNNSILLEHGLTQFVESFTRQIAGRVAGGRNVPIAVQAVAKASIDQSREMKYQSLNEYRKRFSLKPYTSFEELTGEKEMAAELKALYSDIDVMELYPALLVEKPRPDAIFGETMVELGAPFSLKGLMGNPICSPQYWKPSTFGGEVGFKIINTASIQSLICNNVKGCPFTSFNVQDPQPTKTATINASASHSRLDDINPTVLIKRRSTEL
Description: Second, the cyclooxygenase-2 was examined through the following procedure.
as §1, with “RPMI medium [PC/SM (penicilin/streptomycin)] and” for “RPMI medium [including PC/SM (penicilin/streptomycin)] and”, “suspension was treated with aspirin, adjusting 500 μM of final concentration and poured into” for “suspension was poured into”, “96-well plate in 100 μl respectively. Again, it was left with” for “96-well plate and left with”

Inhibitory effects of cyclooxygenase (COX): COX-1 (cyclooxygenase-1; 3 μM)	Inhibitory effects of cyclooxygenase (COX): COX-1 (cyclooxygenase-1; 10 μM)	Inhibitory effects of cyclooxygenase (COX): COX-1 (cyclooxygenase-1; 30 μM)	Inhibitory effects of cyclooxygenase (COX): COX-2 (cyclooxygenase-2; 30 nM)	Inhibitory effects of cyclooxygenase (COX): COX-2 (cyclooxygenase-2; 100 nM)	Inhibitory effects of cyclooxygenase (COX): COX-2 (cyclooxygenase-2; 300 nM)	Compound
58.2 % inhibition	70.4 % inhibition	78.4 % inhibition	˜0 % inhibition	˜0 % inhibition	˜0 % inhibition	CC(C)Oc1ccc(-c2ccc(S(C)(=O)=O)cc2)cc1OC(C)C [Example 4, 4′-methanesulfonyl-3,4-diisopropyloxy-biphenyl]
50.3 % inhibition	58.4 % inhibition	60.4 % inhibition	30.2 % inhibition	33.3 % inhibition	46.5 % inhibition	CS(=O)(=O)c1ccc(-c2ccc(OC3CC3)c(OC3CC3)c2)cc1 [Example 5, 4′-methanesulfonyl-3,4-dicyclopropyloxy-biphenyl]
61.5 % inhibition	70.5 % inhibition	77.1 % inhibition	55.2 % inhibition	60.5 % inhibition	76.5 % inhibition	CCOc1ccc(-c2ccc(S(C)(=O)=O)cc2)cc1OCC [Example 2, 4′-methanesulfonyl-3,4-diethoxy-biphenyl]
36.8 % inhibition	40.5 % inhibition	41.1 % inhibition	47.6 % inhibition	60.3 % inhibition	68.4 % inhibition	CS(=O)(=O)c1ccc(-c2ccc(OCc3ccccc3)c(OCc3ccccc3)c2)cc1 [Example 7, 4′-methanesulfonyl-3,4-dibenzyloxy-biphenyl]
14.7 % inhibition	20.9 % inhibition	22.7 % inhibition	˜0 % inhibition	˜0 % inhibition	˜0 % inhibition	CCCCOc1ccc(-c2ccc(S(C)(=O)=O)cc2)cc1OCCCC [Example 6, 4′-methanesulfonyl-3,4-dibutyloxy-biphenyl]
44.4 % inhibition	50.5 % inhibition	64.7 % inhibition	46.2 % inhibition	50.7 % inhibition	59.7 % inhibition	COc1ccc(-c2ccc(S(C)(=O)=O)cc2)cc1OC [Example 1, 4′-methanesulfonyl-3,4-dimethoxy-biphenyl]
9.4 % inhibition	10.1 % inhibition	23.4 % inhibition	5.0 % inhibition	5.5 % inhibition	10.1 % inhibition	CCCOc1ccc(-c2ccc(S(C)(=O)=O)cc2)cc1OCCC [Example 3, 4′-methanesulfonyl-3,4-dipropyloxy-biphenyl]
29.7 % inhibition	40.2 % inhibition	49.7 % inhibition	27.4 % inhibition	42.7 % inhibition	54.7 % inhibition	CS(=O)(=O)c1ccc(-c2ccc(OC3CCCC3)c(OC3CCCC3)c2)cc1 [Example 8, 4′-methanesulfonyl-3,4-dicyclopentyloxy-biphenyl]

Compound	Inhibitory effects of cyclooxygenase (COX): COX-1 (cyclooxygenase-1; 3 μM)	Inhibitory effects of cyclooxygenase (COX): COX-1 (cyclooxygenase-1; 10 μM)	Inhibitory effects of cyclooxygenase (COX): COX-1 (cyclooxygenase-1; 30 μM)	Inhibitory effects of cyclooxygenase (COX): COX-2 (cyclooxygenase-2; 30 nM)	Inhibitory effects of cyclooxygenase (COX): COX-2 (cyclooxygenase-2; 100 nM)	Inhibitory effects of cyclooxygenase (COX): COX-2 (cyclooxygenase-2; 300 nM)
CCCCOc1cc(-c2ccc(S(C)(=O)=O)cc2)ccc1OC(C)C [Example 9, 3-butoxy-4-isopropoxy-4′-methanesulfonyl-biphenyl]	49.8 % inhibition	66.4 % inhibition	70.8 % inhibition	44.2 % inhibition	59.8 % inhibition	70.4 % inhibition

— patent US20030105095A1 (CHEIL JEDANG Corporation, priority 2001, published 2003)
